From patent US6833456B2, “Indolyl-urea derivatives of thienopyridines useful as antiangiogenic agents, and methods for their use” (Agouron Pharmaceuticals, Inc., priority 2002, dated 2004)
Where “and” joins values, the source holds several entries; their conditions need not be identical. Identical values can stand only once.

Assays:
[1] = target: T1, unphosphorylated VEGF-R2Δ50 (FLVK) (Homo sapiens, UniProt P35968, DEL940-989/E990V); assay: VEGF-R2 coupled spectrophotometric assay, unphosphorylated construct (FLVK); format: biochemical; conditions: for inhibition at 0.05 µM: percent inhibition at 50 nM
T1 construct: VEGF-R2Δ50 contains residues 806-939 and 990-1171; made in house; host or cells: baculovirus/insect cell system
T1 sequence (P35968 with tags, fused parts or gaps DEL940-989/E990V limits assumed): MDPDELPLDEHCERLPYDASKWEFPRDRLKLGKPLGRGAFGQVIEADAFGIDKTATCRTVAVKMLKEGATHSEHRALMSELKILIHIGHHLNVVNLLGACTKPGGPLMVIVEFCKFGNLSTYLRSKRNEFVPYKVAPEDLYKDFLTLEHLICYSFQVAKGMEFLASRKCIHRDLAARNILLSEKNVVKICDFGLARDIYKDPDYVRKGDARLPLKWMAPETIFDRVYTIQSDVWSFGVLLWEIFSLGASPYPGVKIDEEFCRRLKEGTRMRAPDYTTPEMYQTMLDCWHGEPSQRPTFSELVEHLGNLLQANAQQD
Summary of the method: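 Continuous coupled assay (PEP, PK, LDH; NADH loss at 340 nm) in 200 mM HEPES pH 7.5 with 3 mM ATP, 20 mM poly(E4Y1), 60 mM MgCl2 plus 2 mM MnCl2, started with 5-40 nM non-autophosphorylated VEGF-R2Δ50. Ki values from activity across compound concentrations, Morrison fit.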

PDGFRβ = target: T2, PDGFRβ (Homo sapiens, UniProt P09619); assay: PAE-PDGFRβ phosphorylation in PAE-PDGFRB cells assay; format: cell-based; conditions: PAE cells overexpressing human PDGFRβ, PDGF-BB stimulated; read-out: PAE PDGFR autophos IC50
T2 construct: expressed in transfected cells; host or cells: porcine aorta endothelial (PAE) cells
T2 sequence (P09619 33-1106): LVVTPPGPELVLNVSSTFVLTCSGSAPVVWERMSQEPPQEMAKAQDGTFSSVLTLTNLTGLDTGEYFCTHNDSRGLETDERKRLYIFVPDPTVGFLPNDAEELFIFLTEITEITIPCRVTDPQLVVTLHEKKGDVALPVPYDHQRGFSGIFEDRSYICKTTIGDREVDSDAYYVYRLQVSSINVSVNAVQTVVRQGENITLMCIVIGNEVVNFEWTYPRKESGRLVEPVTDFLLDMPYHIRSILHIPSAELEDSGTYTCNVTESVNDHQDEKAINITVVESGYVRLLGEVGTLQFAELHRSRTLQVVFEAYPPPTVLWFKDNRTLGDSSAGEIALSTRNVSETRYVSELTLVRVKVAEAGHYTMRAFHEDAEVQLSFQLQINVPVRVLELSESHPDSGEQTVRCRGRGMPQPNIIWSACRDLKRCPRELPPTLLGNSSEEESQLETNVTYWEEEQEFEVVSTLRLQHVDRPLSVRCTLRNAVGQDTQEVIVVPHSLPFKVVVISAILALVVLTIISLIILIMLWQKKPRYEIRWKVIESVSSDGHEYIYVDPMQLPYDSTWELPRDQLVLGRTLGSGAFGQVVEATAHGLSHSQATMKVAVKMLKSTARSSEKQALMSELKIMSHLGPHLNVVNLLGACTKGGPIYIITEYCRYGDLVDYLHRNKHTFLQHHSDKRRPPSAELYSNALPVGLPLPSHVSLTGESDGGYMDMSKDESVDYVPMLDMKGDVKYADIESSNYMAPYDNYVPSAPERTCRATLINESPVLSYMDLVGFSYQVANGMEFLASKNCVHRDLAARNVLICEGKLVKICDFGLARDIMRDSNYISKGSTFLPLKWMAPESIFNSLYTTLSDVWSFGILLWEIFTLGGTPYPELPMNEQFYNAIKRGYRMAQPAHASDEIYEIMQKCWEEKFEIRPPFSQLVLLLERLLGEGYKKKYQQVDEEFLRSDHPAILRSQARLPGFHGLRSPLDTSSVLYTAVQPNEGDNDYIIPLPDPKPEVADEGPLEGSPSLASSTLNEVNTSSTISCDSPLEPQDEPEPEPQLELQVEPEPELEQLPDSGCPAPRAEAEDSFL
Summary of the method: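 PAE cells overexpressing human PDGFRβ, serum-starved 16 h (0.1% FBS), compound 1 h at 37° C (0.5% DMSO), then 1 μg/mL PDGF-BB with 2 mM Na3VO4 for 8 min. Receptor captured by anti-PDGFRβ, phosphotyrosine detected by HRP-PY20/TMB at 450 nm; IC50 by four-parameter fit.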

[2] = Human liver microsome (HLM) assay; format: in vitro ADME; conditions: human liver microsomes
Experimental: Compound metabolism in human liver microsomes was measured by LC-MS analytical assay procedures as follows. First, human liver microsomes (HLM) were thawed and diluted to 5 mg/mL with cold 100 mM potassium phosphate (KPO4) buffer. Appropriate amounts of KPO4 buffer, NADPH-regenerating solution (containing B-NADP, glucose-6-phosphate, glucose-6-phosphate dehydrogenase, and MgCl2), and HLM were preincubated in 13×100 mm glass tubes at 37° C. for 10 min. (3 tubes per test compound—triplicate). Test compound (5 μM final) was added to each tube to initiate reaction and was mixed by gentle vortexing, followed by incubation at 37° C. […] Samples were centrifuged at 4000 rpm for 20 min. to precipitate proteins and salt (Beckman Allegra 6KR, S/N ALK98DO6, #634). Supernatant was transferred to new 12×75 mm glass tubes and evaporated by Speed-Vac centrifugal vacuum evaporator. Samples were reconstituted in 200 μL 0.1% formic acid/acetonitrile (90/10) and vortexed vigorously to dissolve. The samples were then transferred to separate polypropylene microcentrifuge tubes and centrifuged at 14000×g for 10 min. (Fisher Micro 14, S/N M0017580). […]
The combined compound samples were injected into the LC-MS system, composed of a Hewlett-Packard HP1100 diode array HPLC and a Micromass Quattro II triple quadruple mass spectrometer operating in positive electrospray SIR mode (programmed to scan specifically for the molecular ion of each test compound). Each test compound peak was integrated at each timepoint. […]

Ki [1] [nM]	inhibition at 0.05 µM [1] [%]	IC50 (PDGFRβ)	% remain (HLM-NADPH, 0.5 h) [2] [%]	% remain (HLM-UDPGA, 0.5 h) [2] [%]	Compound
0.1	96	16 nM and 18 nM and 15 nM	76.1		C#CCNC(=O)n1c(C)cc2cc(Oc3ccnc4cc(C(=O)N5CCC[C@H]5COC)sc34)ccc21 [Example 4c, 5-(2-[(S)-2-(methoxymethyl)pyrrolidine-1-carbonyl]thieno[3,2-b]pyridin-7-yloxy)-2-methylindole-1-carboxylic acid prop-2-ynylamide]
0.13	97	22 nM and 24 nM and 23 nM	70.9		COC[C@@H]1CCCN1C(=O)c1cc2nccc(Oc3ccc4c(c3)cc(C)n4C(=O)NC3CC3)c2s1 [Example 4b, 5-(2-[(S)-2-(methoxymethyl)pyrrolidine-1-carbonyl]thieno[3,2-b]pyridin-7-yloxy)-2-methylindole-1-carboxylic acid cyclopropylamide]
0.14	96	16.7 nM			CNC(=O)n1c(C)cc2cc(Oc3ccnc4cc(C(=O)N5CCC[C@@H]5COC)sc34)ccc21 [Example 4e, 5-[2-(2R-Methoxymethyl-pyrrolidine-1-carbonyl)-thieno[3,2-b]pyridin-7-yloxy]-2-methyl-indole-1-carboxylic acid methylamide]
0.32	99	29.1 nM			C#CCNC(=O)n1c(C)c(Cl)c2c(F)c(Oc3ccnc4cc(C(=O)N5CC[C@H](O)C5)sc34)ccc21 [Example 6d, 3-Chloro-4-fluoro-5-[2-(3S-hydroxy-pyrrolidine-1-carbonyl)-thieno[3,2-b]pyridin-7-yloxy]-2-methyl-indole-1-carboxylic acid prop-2-ynylamide]
1.6	91	19 nM			CO[C@H]1CCN(C(=O)c2cc3nccc(Oc4ccc5c(c4)cc(C)n5C(=O)NC4CC4)c3s2)C1 [Example 4h, 5-[2-(3S-Methoxy-pyrrolidine-1-carbonyl)-thieno[3,2-b]pyridin-7-yloxy]-2-methyl-indole-1-carboxylic acid cyclopropylamide]
0.41	91	76 nM and 71 nM and 64 nM			COC[C@@H]1CCCN1C(=O)c1cc2nccc(Oc3ccc4c(c3)cc(C)n4C(=O)NCC#CCO)c2s1 [Example 4d, 5-(2-[(S)-2-(methoxymethyl)pyrrolidine-1-carbonyl]thieno[3,2-b]pyridin-7-yloxy)-2-methylindole-1-carboxylic acid (4-hydroxybut-2-ynyl)amide]

More lines, now with the values behind:

Compound	Ki [1] [nM]	inhibition at 0.05 µM [1] [%]	IC50 (PDGFRβ)	% remain (HLM-NADPH, 0.5 h) [2] [%]	% remain (HLM-UDPGA, 0.5 h) [2] [%]
COC[C@H]1CCCN1C(=O)c1cc2nccc(Nc3ccc4c(c3)cc(C)n4C(=O)NC3CC3)c2s1 [Example 1d, 5-[2-(2R-Methoxymethyl-pyrrolidine-1-carbonyl)-thieno[3,2-b]pyridin-7-ylamino]-2-methyl-indole-1-carboxylic acid cyclopropylamide]	1.1	97	42 nM and 45 nM and 74 nM	85	
CNC(=O)n1c(C)cc2cc(Nc3ccnc4cc(-c5nccn5C)sc34)ccc21 [Example 2a, 5-(2-[1-methyl-1H-imidazol-2-yl]thieno[3,2-b]pyridin-7-ylamino)-2-methylindole-1-carboxylic acid methylamide]	2.1	84	57 nM and 96 nM and 61 nM and 41 nM	91.1	101.8
CNC(=O)n1c(C)cc2cc(Nc3ccnc4cc(C(=O)N5CCC[C@H]5CO)sc34)ccc21 [Example 2b, 5-(2-[(S)-2-(hydroxymethyl)pyrrolidine-1-carbonyl]thieno[3,2-b]pyridin-7-ylamino)-2-methylindole-1-carboxylic acid methylamide]	1.03	85	856 nM and > 100 nM and 616 nM and 556 nM and 657 nM and 682 nM	92.1	104.8
CNC(=O)n1c(C)cc2cc(Nc3ccnc4cc(C(=O)N5CCC[C@H]5COC)sc34)ccc21 [Example 1t, 5-(2-[(S)-2-(methoxymethyl)pyrrolidine-1-carbonyl]thieno[3,2-b]pyridin-7-ylamino)-2-methylindole-1-carboxylic acid methylamide]	1.13	87	116 nM and > 100 nM and 97 nM	76.3	
CNC(=O)n1c(C)cc2cc(Nc3ccnc4cc(C(=O)N5CC[C@@H](OC)C5)sc34)ccc21 [Example 1l, 5-[2-(3R-Methoxy-pyrrolidine-1-carbonyl)-thieno[3,2-b]pyridin-7-ylamino]-2-methyl-indole-1-carboxylic acid methylamide]		94	49 nM and 45 nM and 95 nM		
CO[C@@H]1C[C@@H](CO)N(C(=O)c2cc3cccc(Nc4ccc5c(c4)cc(C)n5C(=O)NC4CC4)c3s2)C1 [Example 3g, 5-[2-((2S,4R)-2-Hydroxymethyl-4-methoxy-pyrrolidine-1-carbonyl)-benzo[b]thiophen-7-ylamino]-2-methyl-indole-1-carboxylic acid cyclopropylamide]	1.12	95	> 1000 nM		
Cc1cc2cc(Nc3ccnc4cc(-c5nc(C(C)(C)O)cs5)sc34)ccc2n1C(=O)NC1CC1 [Example 3b, 5-{2-[4-(1-Hydroxy-1-methyl-ethyl)-thiazol-2-yl]-thieno[3,2-b]pyridin-7-ylamino}-2-methyl-indole-1-carboxylic acid cyclopropylamide]	0.21	95	142 nM and 125 nM		
CCOC(=O)c1csc(-c2cc3nccc(Nc4ccc5c(c4)cc(C)n5C(=O)NC)c3s2)n1 [Example 3c, 2-[7-(2-Methyl-1-methylcarbamoyl-1H-indol-5-ylamino)-thieno[3,2-b]pyridin-2-yl]-thiazole-4-carboxylic acid ethyl ester]	0.79	81	631 nM		
COC[C@@H]1CCCN1C(=O)c1cc2nccc(Nc3ccc4c(c3)cc(C)n4C(=O)NC3CC3)c2s1 [Example 2c, 5-(2-[(S)-2-(methoxymethyl)pyrrolidine-1-carbonyl]thieno[3,2-b]pyridin-7-ylamino)-2-methylindole-1-carboxylic acid cyclopropylamide]	0.56	97	84 nM and 105 nM and 87 nM	76.2	
CNC(=O)n1c(C)cc2cc(Nc3cccc4cc(C(=O)N5C[C@H](OC)C[C@H]5CO)sc34)ccc21 [Example 3f, 5-[2-((2S,4R)-2-Hydroxymethyl-4-methoxy-pyrrolidine-1-carbonyl)-benzo[b]thiophen-7-ylamino]-2-methyl-indole-1-carboxylic acid methylamide]	10.5	57	> 1000 nM		
CNC(=O)n1c(C)cc2cc(Oc3ccnc4cc(C(=O)N5C[C@H](OC)C[C@H]5CO)sc34)ccc21 [Example 3o, 5-[2-(2-Hydroxymethyl-4-methoxy-pyrrolidine-1-carbonyl)-thieno[3,2-b]pyridin-7-yloxy]-2-methyl-indole-1-carboxylic acid methylamide]	1.35	93	599 nM and 126 nM		
